Measured values published in US20260108526A1, “BIOMARKER FOR TREATMENT OF SOLID CANCER WITH IMIDAZO[4,5-b]PYRIDINE DERIVATIVE” (CHORDIA THERAPEUTICS INC., priority 2022, published 2026).

System: 3T3 cells with MYCC WT, Q37del or S146L introduced (comparative control GFP or KRASG12D)
Assay: Drug sensitivity evaluation by MANO method, 3T3 cells with cancer-related genes introduced
Type: cell-based, mouse
Details: versus GFP or KRASG12D
Method: The present evaluation was carried out as follows with a conventional procedure of the MANO method described in International Publication No. WO 2018/181863.
HEK (Human Embryonic Kidney) 293 cells and mouse 3T3 fibroblasts were obtained from ATCC (American Type Culture Collection), and maintained with Dulbecco's modified Eagle's medium F-12 (DMEM-F12) supplemented with 10% FBS (both from Thermo Fisher Scientific, Walthman, MA). […]
The recombinant plasmid prepared as above was introduced into HEK293 cells together with a packaging plasmid (Takara Bio Inc., Shiga, Japan), giving recombinant retroviral particles. […] The transformation of the cells was evaluated by phase-contrast microscopy or staining with Giemsa solution. […]
The PCR product after amplification was purified with AMPurebeads (Beckman Coulter, Inc., Brea, CA). […] The quality of the library was evaluated with a Qubit 2.0 Fluorometer (Thermo Fisher Scientific) and an Agilent2200 Tape Station system. The library was sequenced by using an Illumina MiSeq (300 cycles) with a Reagent Kit V2 to produce paired-end reads of 150 bp. These sequence reads included the following sequence containing the barcode sequence: 5′-[…]-3′ (wherein N represents any nucleotide) and the complementary sequence. The amount of each mutant was estimated by counting the number of reads for the barcode sequence. […]

## COc1ncnn2ccc(-c3cnc4nc(C)n(Cc5nnc([C@@H](C)F)o5)c4c3)c12 [compound A]
  growth-inhibitory effect (IC90 lower than comparative control): particularly strong growth-inhibitory effect
